# Assay results as given in US20250360235A1, “RADI[…] AND METHOD FOR RADIOLABELLING” (Telix Innovations SA, priority 2024, published 2025).
# Experiment: Radiochemical purity by iTLC over time after radiolabelling
# Type: physicochemical
# Description: Table 1 to Table 5 show the results of various radiolabelling experiments on radiochemical purity and the chelation yield. The radiolabelling experiments in the tables are carried out as described in: • Example 1 for when the gallium-68 source is GE Liquid target generator and EZAG GalliaPharm generator; • Example 2 for when the gallium-68 source is IRE Galli Eo generator; • Example 3 for when the gallium-68 source is GE solid target generator;
# However, the experiments were carried out with the amount of ascorbic acid as indicated in the Tables 1 to 5, and the activity as indicated in the Tables 1 to 5. Radiochemical purities were measured at various times (T0, T1, T4, T6) after the radiolabelled experiments have been conducted.
# The kits of Example 1, Example 2 or Example 3, with amounts of ascorbic acid as set out in Table 7 were used in the experiments for the ascorbic acid bracketing matrix. Three strengths of [^68Ga]Ga-PSMA-11 will be tested, i.e. 50 mCi/ml, 7 mCi/ml and 1 mCi/ml. Radiochemical purity was determined at different time points (TO, T1, T4 or T6), as set out in Table 7.
# [1] = validation batches, 25 mg ascorbic acid, 51.6-62.7 mCi, 4.56-5.88 mCi/mL, IRE Galli Eo, average of 3, T0
# [2] = validation batches, 25 mg ascorbic acid, 51.6-62.7 mCi, 4.56-5.88 mCi/mL, IRE Galli Eo, average of 3, T4 (4 h)
# [3] = validation batches, 25 mg ascorbic acid, 51.6-62.7 mCi, 4.56-5.88 mCi/mL, IRE Galli Eo, n=3, T0
# [4] = validation batches, 25 mg ascorbic acid, 51.6-62.7 mCi, 4.56-5.88 mCi/mL, IRE Galli Eo, n=3, T4 (4 h)
# [5] = validation batches, 25 mg ascorbic acid, 53.3-74.4 mCi, 5.03-6.92 mCi/mL, GE Liquid target, average of 3, T0
# [6] = validation batches, 25 mg ascorbic acid, 53.3-74.4 mCi, 5.03-6.92 mCi/mL, GE Liquid target, average of 3, T4 (4 h)
# [7] = validation batches, 25 mg ascorbic acid, 53.3-74.4 mCi, 5.03-6.92 mCi/mL, GE Liquid target, n=3, T0
# [8] = validation batches, 25 mg ascorbic acid, 53.3-74.4 mCi, 5.03-6.92 mCi/mL, GE Liquid target, n=3, T4 (4 h)
# [9] = validation batches, 25 mg ascorbic acid, 65.0-66.4 mCi, 5.74-6.15 mCi/mL, EZAG GalliaPharm, average of 3, T0
# [10] = validation batches, 25 mg ascorbic acid, 65.0-66.4 mCi, 5.74-6.15 mCi/mL, EZAG GalliaPharm, average of 3, T4 (4 h)
# [11] = validation batches, 25 mg ascorbic acid, 65.0-66.4 mCi, 5.74-6.15 mCi/mL, EZAG GalliaPharm, n=3, T0
# [12] = validation batches, 25 mg ascorbic acid, 65.0-66.4 mCi, 5.74-6.15 mCi/mL, EZAG GalliaPharm, n=3, T4 (4 h)
# [13] = validation batches, 25 mg ascorbic acid, 537-551 mCi, 50.2-51.6 mCi/mL, GE Solid Target, average of 3, T0
# [14] = validation batches, 25 mg ascorbic acid, 537-551 mCi, 50.2-51.6 mCi/mL, GE Solid Target, average of 3, T6 (6 h)
# [15] = validation batches, 25 mg ascorbic acid, 537-551 mCi, 50.2-51.6 mCi/mL, GE Solid Target, n=3, T0
# [16] = validation batches, 25 mg ascorbic acid, 537-551 mCi, 50.2-51.6 mCi/mL, GE Solid Target, n=3, T6 (6 h)
# [17] = validation batches, 25 mg ascorbic acid, 555-564 mCi, 51.1-52.7 mCi/mL, ARTMS Solid Target, average of 3, T0
# [18] = validation batches, 25 mg ascorbic acid, 555-564 mCi, 51.1-52.7 mCi/mL, ARTMS Solid Target, average of 3, T6 (6 h)
# [19] = validation batches, 25 mg ascorbic acid, 555-564 mCi, 51.1-52.7 mCi/mL, ARTMS Solid Target, n=3, T0
# [20] = validation batches, 25 mg ascorbic acid, 555-564 mCi, 51.1-52.7 mCi/mL, ARTMS Solid Target, n=3, T6 (6 h)
structure (smiles),measurement,setting,value
"O=C([O-])CN(CCN(CC(=O)[O-])Cc1cc(CCC(=O)NCCCCCC(=O)NCCCC[C@H](NC(=O)N[C@@H](CCC(=O)O)C(=O)O)C(=O)O)ccc1[O-])Cc1cc(CCC(=O)O)ccc1[O-].[68Ga+3].[OH3+] [[^68Ga]PSMA-11, gallium-68 radiolabelled Glu-urea-Lys-HBED-CC (gozetotide or PSMA-11)]",Radiochemical Purity (iTLC) Ga-68 PSMA-11 (%),"bracketing ~50 mCi/mL, 31.25 mg ascorbic acid, 500-544 mCi, 48.1-51.7 mCi/mL, GE Solid Target, average of 2, T6 (6 h)",99%
same,Radiochemical Purity (iTLC) Free and Colloidal Ga-68 (%),[1],0%
same,Radiochemical Purity (iTLC) Ga-68 PSMA-11 (%),[1],100%
same,Radiochemical Purity (iTLC) Free and Colloidal Ga-68 (%),[2],1%
same,Radiochemical Purity (iTLC) Ga-68 PSMA-11 (%),[2],99%
same,Radiochemical Purity (iTLC) Free and Colloidal Ga-68 (%),[3],C (C = all results conform to specifications)
same,Radiochemical Purity (iTLC) Ga-68 PSMA-11 (%),[3],C (C = all results conform to specifications)
same,Radiochemical Purity (iTLC) Free and Colloidal Ga-68 (%),[4],C (C = all results conform to specifications)
same,Radiochemical Purity (iTLC) Ga-68 PSMA-11 (%),[4],C (C = all results conform to specifications)
same,Radiochemical Purity (iTLC) Free and Colloidal Ga-68 (%),[5],1%
same,Radiochemical Purity (iTLC) Ga-68 PSMA-11 (%),[5],99%
same,Radiochemical Purity (iTLC) Free and Colloidal Ga-68 (%),[6],0%
same,Radiochemical Purity (iTLC) Ga-68 PSMA-11 (%),[6],100%
same,Radiochemical Purity (iTLC) Free and Colloidal Ga-68 (%),[7],C (C = all results conform to specifications)
same,Radiochemical Purity (iTLC) Ga-68 PSMA-11 (%),[7],C (C = all results conform to specifications)
same,Radiochemical Purity (iTLC) Free and Colloidal Ga-68 (%),[8],C (C = all results conform to specifications)
same,Radiochemical Purity (iTLC) Ga-68 PSMA-11 (%),[8],C (C = all results conform to specifications)
same,Radiochemical Purity (iTLC) Free and Colloidal Ga-68 (%),[9],0%
same,Radiochemical Purity (iTLC) Ga-68 PSMA-11 (%),[9],100%
same,Radiochemical Purity (iTLC) Free and Colloidal Ga-68 (%),[10],2%
same,Radiochemical Purity (iTLC) Ga-68 PSMA-11 (%),[10],98%
same,Radiochemical Purity (iTLC) Free and Colloidal Ga-68 (%),[11],C (C = all results conform to specifications)
same,Radiochemical Purity (iTLC) Ga-68 PSMA-11 (%),[11],C (C = all results conform to specifications)
same,Radiochemical Purity (iTLC) Free and Colloidal Ga-68 (%),[12],C (C = all results conform to specifications)
same,Radiochemical Purity (iTLC) Ga-68 PSMA-11 (%),[12],C (C = all results conform to specifications)
same,Radiochemical Purity (iTLC) Free and Colloidal Ga-68,[13],0%
same,Radiochemical Purity (iTLC) Ga-68 PSMA-11,[13],100%
same,Radiochemical Purity (iTLC) Free and Colloidal Ga-68,[14],1%
same,Radiochemical Purity (iTLC) Ga-68 PSMA-11,[14],99%
same,Radiochemical Purity (iTLC) Free and Colloidal Ga-68,[15],C (C = all results conform to specifications)
same,Radiochemical Purity (iTLC) Ga-68 PSMA-11,[15],C (C = all results conform to specifications)
same,Radiochemical Purity (iTLC) Free and Colloidal Ga-68,[16],C (C = all results conform to specifications)
same,Radiochemical Purity (iTLC) Ga-68 PSMA-11,[16],C (C = all results conform to specifications)
same,Radiochemical Purity (iTLC) Free and Colloidal Ga-68,[17],1%
same,Radiochemical Purity (iTLC) Ga-68 PSMA-11,[17],99%
same,Radiochemical Purity (iTLC) Free and Colloidal Ga-68,[18],0%
same,Radiochemical Purity (iTLC) Ga-68 PSMA-11,[18],100%
same,Radiochemical Purity (iTLC) Free and Colloidal Ga-68,[19],C (C = all results conform to specifications)
same,Radiochemical Purity (iTLC) Ga-68 PSMA-11,[19],C (C = all results conform to specifications)
same,Radiochemical Purity (iTLC) Free and Colloidal Ga-68,[20],C (C = all results conform to specifications)
same,Radiochemical Purity (iTLC) Ga-68 PSMA-11,[20],C (C = all results conform to specifications)
